Data reported in patent publication US6339064B1, “Benzylglycosylamides as inhibitors of smooth muscle cell proliferation” (American Home Products Corporation, priority 1998, dated 2002).
pIC50: −log10 of the molar value.

Tested on: Porcine Smooth Muscle Cell
Test: Effects of compounds on cell proliferation using 3H thymidine incorporation (porcine smooth muscle cell antiproliferation)
Assay type: cell-based
Conditions: at 50 μM, control (100%) = maximally stimulated cells
Description: Effects of Compounds on Cell Proliferation Using ^3H Thymidine Incorporation
Human and porcine smooth muscle cells were tested in early passage (generally passage 3-7) at sub-confluent conditions. Cultures were grown in 16 mm (24 well) multi-well culture dishes in medium 199 supplemented with 10% fetal bovine serum and 2% antibiotic/antimycotic. At sub-confluence, the cells were placed in a defined serum free medium (AIM-V; Gibco) for 24-48 h prior to initiating the experimental protocol.
Compounds were added to each well at 50 fold dilution (20 μL/well) and the plates were incubated for 24-36 h at 37° C. in 5% CO2. Compounds were initially dissolved in 50% ethanol and serially diluted into media. Compounds were routinely evaluated at concentrations from 1 to 100 μM. As a control, grade II porcine intestinal mucosal herapin (sodium salt) was routinely evaluated in all cell preparations at concentrations from 0.1 to 100 μg/mL.
At the completion of the test procedure, plates were placed on ice, washed three times with ice cold phosphate buffered saline (PBS) and incubated in ice cold 10% trichloroacetic acid (TCA) got 30 min to remove acid soluble proteins. Solution was transferred to scintillation vials containing 0.4 N HCl (500 μL/vial to neutralize NaOH) and each well was rinsed two times with water (500 μL) for a total volume of 2 mL/vial.
Data was obtained, in triplicate, for both control and experimental samples. Control (100%) data was obtained from maximally stimulated cells, as the result of growth factor or serum stimulation. Experimental data was obtained from cells maximally stimulated with growth factor or serum and treated with compound. Data are expressed as an IC50 in Table I below.

Structure (SMILES) | Porcine Smooth Muscle Cell Antiproliferation, % at 50 μM
N#CCCCOc1ccc(C(=O)NC2OC(CO)C(OC3OC4COC(c5ccccc5)OC4C(O)C3O)C(O)C2O)cc1[N+](=O)[O-] [Example 29, N-(4′,6′-O-Benzylidene-β-D-maltosyl)-4-(4-nitrilo-butoxy)-3-nitro-benzamide] | 4% at 50
CC(=O)OC[C@H]1O[C@@H](NC(=O)c2ccc(OCCCC#N)c(N)c2)[C@H](OC(C)=O)[C@@H](OC(C)=O)[C@@H]1O[C@H]1O[C@H](COC(C)=O)[C@@H](OC(C)=O)[C@H](OC(C)=O)[C@H]1OC(C)=O [Example 32] | 10% at 50
COc1cc(C(=O)NC2OC(CO)C(OC3OC4COC(c5ccccc5)OC4C(O)C3O)C(O)C2O)ccc1Cl [Example 23, N-(4′,6′-O-Benzylidene-β-D-maltosyl)-4-chloro-3-methoxy-benzamide] | 2% at 50
CCCCOc1c(Cl)cc(C(=O)N[C@@H]2O[C@H](CO)[C@@H](O[C@H]3O[C@@H]4COC(c5ccccc5)O[C@H]4[C@H](O)[C@H]3O)[C@H](O)[C@H]2O)cc1OC.O (stereo partly drawn) [Example 26, 4-butoxy-3-chloro-N-[(4′,6′-O-benzylidene)-β-D-maltosyl]-5-methoxy-benzamide Hydrate] | 32% at 50
CCCCOc1c(Cl)cc(C(=O)NC2OC(COC(=O)c3ccccc3)C(OC3OC4COC(c5ccccc5)OC4C(O)C3O)C(O)C2O)cc1OC [Example 27, N[(6-O-benzoyloxy-4′,6′-O-benzylidene)-β-D-maltosyl]-4-butoxy-3-chloro-5-methoxy-benzamide] | 45% at 50

Same assay, conditions: serum/growth factor stimulated cells, 24-36 h incubation

Structure (SMILES) | pIC50
CC(=O)OC[C@H]1O[C@@H](NC(=O)Cc2ccc(Cl)c([N+](=O)[O-])c2)[C@H](OC(C)=O)[C@@H](OC(C)=O)[C@@H]1O[C@H]1O[C@H](COC(C)=O)[C@@H](OC(C)=O)[C@H](OC(C)=O)[C@H]1OC(C)=O [Example 50, N-(2,2′,3,3′,4′,6,6′-hepta-O-acetyl-β-D-maltosyl)-2-(4-chloro-3-nitro-phenyl)-acetamide] | 5.37
CC(=O)Nc1cc(C(=O)NC2OC(COC(=O)c3ccccc3)C(OC3OC4COC(c5ccccc5)OC4C(O)C3OC(C)=O)C(O)C2OC(C)=O)ccc1Cl [Example 9, (R)-N-[2-O-Acetyl-4-O-[2-O-acetyl-4,6-O-(phenylmethylene)-α-D-glucopyranosyl]-6-O-benzoyl-β-D-glucopyranosyl]-3-(acetylamino)-4-chlorobenzamide] | 5.90
COc1ccc(C(=O)N[C@@H]2O[C@H](COC(C)=O)[C@@H](O[C@H]3O[C@H](COC(C)=O)[C@@H](OC(C)=O)[C@H](OC(C)=O)[C@H]3OC(C)=O)[C@H](OC(C)=O)[C@H]2OC(C)=O)c(OC)n1 [Example 36, N-(Hepta-O-acetyl-β-D-maltosyl)-2,6-dimethoxy-pyridine-3-carboxamide] | 4.87
CC(=O)Nc1cc(C(=O)NC2OC(COC(=O)c3ccccc3)C(OC3OC4COC(c5ccccc5)OC4C(O)C3O)C(O)C2O)ccc1OCCCC#N [Example 34, 3-Acetylamino-N-(6-O-benzoyl-4′,6′-O-benzylidene-β-D-maltosyl)-4-(4-nitrilo-butoxy)-benzamide] | 6.01
CC(=O)OC[C@H]1O[C@H](NC(=O)c2ccc(OCCCC#N)c(Cl)c2)[C@H](OC(C)=O)[C@@H](OC(C)=O)[C@@H]1O[C@H]1O[C@H](COC(C)=O)[C@@H](OC(C)=O)[C@H](OC(C)=O)[C@H]1OC(C)=O [Example 14] | 4.29
COc1cc(C(=O)NC2OC(COC(=O)c3ccccc3)C(OC3OC4COC(c5ccccc5)OC4C(O)C3O)C(O)C2O)ccc1Cl [Example 24, N-(6-O-Benzoyl-4′,6′-O-benzylidene-β-D-maltosyl)-4-chloro-3-methoxy-benzamide] | 5.70
CC(=O)OC[C@H]1O[C@@H](NC(=O)c2cncc(Br)c2)[C@H](OC(C)=O)[C@@H](OC(C)=O)[C@@H]1O[C@H]1O[C@H](COC(C)=O)[C@@H](OC(C)=O)[C@H](OC(C)=O)[C@H]1OC(C)=O [Example 37, N-(Hepta-O-acetyl-β-D-maltosyl)-5-bromopyridine-3-carboxamide] | 4.79
CC(=O)OC[C@H]1O[C@@H](NC(=O)c2ccc(Cl)c([N+](=O)[O-])c2)[C@H](OC(C)=O)[C@@H](OC(C)=O)[C@@H]1O[C@H]1O[C@H](COC(C)=O)[C@@H](OC(C)=O)[C@H](OC(C)=O)[C@H]1OC(C)=O [Example 1, N-(Hepta-O-acetyl-1-deoxy-β-D-maltosyl)-4-chloro-3-nitro-benzamide] | 4.67
CC(=O)Nc1cc(C(=O)NC2OC(COC(=O)c3ccccc3)C(OC3OC4COC(c5ccccc5)OC4C(O)C3O)C(O)C2O)ccc1Cl [Example 6, (R)-3-(Acetylamino)-N-[6-O-benzoyl-4-O-[4,6-O-(phenylmethylene)-α-D-glucopyranosyl]-β-D-glucopyranosyl]-4-chloro-benzamide] | 6.35
CC(=O)OC[C@H]1O[C@@H](NC(=O)c2ccc(Cl)nc2)[C@H](OC(C)=O)[C@@H](OC(C)=O)[C@@H]1O[C@H]1O[C@H](COC(C)=O)[C@@H](OC(C)=O)[C@H](OC(C)=O)[C@H]1OC(C)=O [Example 35, N-(Hepta-O-acetyl-β-D-maltosyl)-6-chloropyridine-3-carboxamide] | 4.18
CCCCOc1c(Cl)cc(C(=O)N[C@@H]2O[C@H](CO)[C@@H](O[C@H]3O[C@H](CO)[C@@H](O)[C@H](O)[C@H]3O)[C@H](O)[C@H]2O)cc1Cl [Example 42, 4-Butoxy-3,5-dichloro-N-β-D-maltosyl-benzamide] | 4.54
CC(=O)Nc1cc(C(=O)NC2OC(CO)C(OC3OC4COC(c5ccccc5)OC4C(O)C3O)C(O)C2O)ccc1Cl [Example 4, (R)-3-(Acetylamino)-4-chloro-N-[4-O-[4,6-O-(phenylmethylene)-α-D-glucopyranosyl]-β-D-glucopyranosyl]-benzamide] | 5.49
CCCCOc1ccc(C(=O)NC2OC(COC(=O)c3ccccc3)C(OC3OC4COC(c5ccccc5)OC4C(O)C3O)C(O)C2O)cc1Cl [Example 20, 4-Butoxy-3-chloro-N-[(6-O-benzoyl-4′,6′-O-benzylidene)-β-D-maltosyl]-benzamide] | 5.50
CCCCOc1c(Cl)cc(C(=O)NC2OC(COC(C)=O)C(OC3OC(COC(C)=O)C(OC(C)=O)C(OC(C)=O)C3OC(C)=O)C(OC(C)=O)C2OC(C)=O)cc1OC [Example 25, N-(2,2′,3,3′,4,6,6′-hepta-O-acetyl-β-D-maltosyl]-4-butoxy-5-chloro-3-methoxy-benzamide] | 5.57
CC(=O)O[C@@H]1[C@@H](OC(C)=O)[C@H](NC(=O)c2ccc(Cl)c([N+](=O)[O-])c2)O[C@H](COC(=O)c2ccccc2)[C@H]1O[C@H]1O[C@@H]2COC(c3ccccc3)O[C@H]2[C@H](OC(C)=O)[C@H]1OC(C)=O (stereo partly drawn) [Example 8, 4-Chloro-N-[(2,2′,3,3′-tetra-O-acetyl-6-benzoyl-4′,6′-O benzylidene)-β-D-maltosyl]-3-nitro-benzamide] | 6.59
CC(=O)OC[C@H]1O[C@@H](NC(=O)c2ccc(C)nc2)[C@H](OC(C)=O)[C@@H](OC(C)=O)[C@@H]1O[C@H]1O[C@H](COC(C)=O)[C@@H](OC(C)=O)[C@H](OC(C)=O)[C@H]1OC(C)=O [Example 41, N-(Hepta-O-acetyl-β-D-maltosyl)-6-methylpyridine-3-carboxamide] | 4.18
